Data: patent US12551532B2, “Long-acting amylin receptor agonists and uses thereof” (Eli Lilly and Company, priority 2021, dated 2026)
Starred links: 1 amine or outer side, 2 acyl side, 3 side chain; linkers in the order of their positions; H or OH if unused. Positions of bridges follow the written chain, without caps; N, C: chain ends. Non-standard residues stand in square brackets, D forms with d. Residues, ends and D or L forms follow the SMILES beside them. Groups on a side chain read outwards from the residue. *: point of attachment. C20 diacid = O=C(O)CCCCCCCCCCCCCCCCCCC(=O)*; γGlu = O=C(O)[C@H](CCC(=O)[*:2])N[*:1]; αMeF = C[C@](N)(Cc1ccccc1)C(=O)O; NMeD = CN[C@@H](CC(=O)O)C(=O)O; NMeN = CN[C@@H](CC(N)=O)C(=O)O; Orn = NCCC[C@H](N)C(=O)O; CH2 = C([*:1])[*:2]

Columns and labels:
[1] = Pharmacokinetics in male Sprague Dawley rats; format: in vivo; details: single SC 30 nmol/kg, mean; for Tmax / CL/F / half-life: rat, plasma; for Tmax / AUCINF/D / Cmax/D / CL/F: n = 3; for half-life: n = 3, read-out: T l/2 (converted)
Description: The pharmacokinetics of Compound II (SEQ ID NO:2), Compound IV (SEQ ID NO:4), Compound VI (SEQ ID NO:6), and Compound VIII (SEQ ID NO:8) are evaluated following a single subcutaneous administration of 30 nmol/kg to male Sprague Dawley rats. Blood samples are collected at 1, 3, 6, 12, 24, 48, 72, 96 hours post SC dose. The resulting individual plasma concentrations are used to calculate pharmacokinetic parameters. Peptide plasma (K3EDTA) concentrations are determined using a qualified LC/MS method that measured the intact mass of the peptides. Each peptide and an analog as an internal standard are extracted from plasma. A high resolution Thermo Q-Exactive is used for LC/MS detection.

[2] = system: pre-existing antibodies (ADA) in normal human serum; assay: Pre-existing reactivity (ACE assay format); details: >50 donors; treatment-naive normal human serum
Description: This assay assesses the presence of pre-existing antibodies (ADA) against the tested molecules in treatment-naive normal human serum (NHS). Diluted NHS is incubated overnight on a Pierce Streptavidin plate coated with biotinylated tested molecules. On the following day, the captured binding proteins are acid eluted, hard-coated to a Mesoscale (MSD) plate, and detected with a combination of biotin-labeled molecule and ruthenium-labeled streptavidin. If anti-drug antibodies are present, they will bind the labeled drug and the resulting signal is referred to as Tier 1 signal (expressed as electrochemiluminescence). This signal is confirmed in Tier 2 by adding excess unlabeled tested molecule in the detection step, which results in the suppression of the Tier 1 signal. The presence of pre-existing anti-drug antibodies is expressed as magnitude of the 90th percentile of Tier 2 inhibition. The 90th percentile of Tier 2 inhibition, is a statistical tool to assess the magnitude of specificity of Tier 1 reactivity. This 90th percentile is used to rank molecules in terms of ADA risk.

[3] = system: human dendritic cells; format: cell-based
Description: MAPPS profiles the MHC-II presented peptides on human dendritic cells treated with tested molecules. CD14+ cells, isolated from the PBMCs of normal human donors, are cultured and differentiated into immature DCs by incubation with IL-4 and GM-CSF. On day 4, culture media is replaced with fresh media containing tested molecules. On day 5, LPS is added to transform the cells into mature DCs. On day 6, cells are lysed in RIPA buffer with protease inhibitors. Immunoprecipitation of MHC-II complexes are performed using biotinylated anti-MHC-II antibody coupled to streptavidin beads. The bound complex is eluted and filtered. The isolated MHC-II peptides are analyzed by a mass spectrometer. Peptide identifications are generated by an internal proteomics pipeline using search algorithms with no enzyme and a bovine/human database with test sequences appended to the database. A KNIME workflow is used to process the identification files from the samples. Peptides identified from the test articles are aligned against the parent sequence of the test molecule. The output is used to determine the percentage of donors displaying MHC-II peptides from regions of the test molecule. Compound II, Compound IV, Compound VI, Compound VIII, a compound representative of U.S. Pat. No. 9,023,789 (hereinafter “Compound '789”), and Pramlintide are tested in the MAPPs assay.

[4] = molecular target: T1, hAMY1R (Homo sapiens, UniProt O60894+P30988); assay: hAMY1R cAMP functional activity (HTRF); format: cell-based; details: ±SE; UMUC3 cells overexpressing hAMY1R; relative EC50
T1 construct: expressed in transfected cells
Description: The AMY1 and CT receptors are GPCRs that are functionally coupled to Gas proteins. […] In vitro activity of peptides is measured by the amount of cAMP formed in human AMY1R and CTR overexpressed cells.
Human AMY1R stable cell lines are generated by further transfecting human RAMP1-pCMVpuroPB (T14213) into UMUC3 hCTR clone cells. After selection, the mRNA levels human RAMP1 from different clones are measured to confirm the expression of human AMY1R.
hAMY1R cells are cultured in MEM 1× (Corning) supplemented with 10% FBS, 1% antibiotic/antimycotic solution, 1 mM sodium pyruvate, 1×MEM NEAA, 1× GlutaMAX-I, 200 μg/mL hygromycin B, and 0.4 μg/mL puromycin. The hCTR cells are cultured in the same medium lacking the puromycin. Cultured cells are grown to 70% confluency and then incubated overnight with fresh medium.
Peptides diluted in DMSO are added (200 nL/well) in a 1:3 dilution series using ECHO acoustic liquid handler (Beckman). Cultured cells are detached with TrypLE Express (Gibco), resuspended in assay buffer, and 10 μL containing 1200 cells/well (hCTR) or 1500 cells/well (hAMY1R) are dispensed into each well. The plates are incubated at room temperature for 1 hour.
The amount of intracellular cAMP is quantitated using HTRF technology (Homogeneous Time Resolved Fluorescence; Cisbio) as per vendor instructions. Briefly, 10 μL cAMP-d2 conjugate and 10 μL anti-cAMP-cryptate conjugate in lysis buffer are incubated with the treated cells at room temperature for 60 min. […] The raw data are converted to cAMP amount (pmol/well) using a cAMP standard curve generated for each experiment.

T1 sequence (P30988 25-474): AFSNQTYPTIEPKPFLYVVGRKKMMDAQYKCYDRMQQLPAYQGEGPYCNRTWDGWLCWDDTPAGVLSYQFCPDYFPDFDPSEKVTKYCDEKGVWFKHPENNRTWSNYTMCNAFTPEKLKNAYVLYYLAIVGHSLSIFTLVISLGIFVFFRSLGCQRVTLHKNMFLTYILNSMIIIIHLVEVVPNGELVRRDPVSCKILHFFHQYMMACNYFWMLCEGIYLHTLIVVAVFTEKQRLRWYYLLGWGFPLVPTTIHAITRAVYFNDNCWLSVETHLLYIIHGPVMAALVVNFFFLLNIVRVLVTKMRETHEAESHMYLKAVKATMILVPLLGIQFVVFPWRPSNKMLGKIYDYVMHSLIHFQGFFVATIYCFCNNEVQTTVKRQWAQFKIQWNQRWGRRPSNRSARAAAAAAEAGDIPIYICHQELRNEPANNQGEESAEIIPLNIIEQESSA
T1 sequence (O60894 27-148 partner): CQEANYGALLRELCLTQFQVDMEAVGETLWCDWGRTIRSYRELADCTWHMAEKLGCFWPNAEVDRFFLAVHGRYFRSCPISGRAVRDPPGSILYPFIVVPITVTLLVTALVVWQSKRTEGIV

Tmax [1]	AUCINF/D [1]	Cmax/D [1]	Pre-existing Reactivity 90th percentile T2 inhibition [2]	MAPPS Assay donors displayed peptides [3]	MAPPS Assay immunogenicity risk [3]	EC50 [4]	CL/F [1]	half-life [1]	Structure (SMILES)	peptides displayed on MHC-II complexes [3]
24 h	473 ± 63.8 hr * kg * nmol/L/nmol	4.9 ± 0.9 kg * nmol/L/nmol	48.8%	no peptides	Low Risk	0.075 ± 0.012 nM			CC(C)C[C@H](NC(=O)[C@H](CCCN)NC(=O)CNC(=O)[C@@H](NC(=O)[C@H](C)NC(=O)[C@@H]1CSCSC[C@H](NC(=O)CC[C@H](N)C(=O)O)C(=O)N[C@@H](CC(N)=O)C(=O)N[C@@H]([C@@H](C)O)C(=O)N[C@@H](C)C(=O)N[C@@H]([C@@H](C)O)C(=O)N1)[C@@H](C)O)C(=O)N[C@@H](C)C(=O)N[C@@H](CCC(=O)O)C(=O)N[C@@](C)(Cc1ccccc1)C(=O)N[C@@H](CC(C)C)C(=O)N[C@H](C(=O)N[C@@H](CCCNC(=N)N)C(=O)N[C@@H](CO)C(=O)N[C@@H](CO)C(=O)N[C@@H](CC(N)=O)C(=O)N(C)[C@@H](CC(N)=O)C(=O)N[C@@H](Cc1ccccc1)C(=O)NCC(=O)N1CCC[C@H]1C(=O)N[C@@H](CCCCNC(=O)CC[C@H](NC(=O)CC[C@H](NC(=O)CCCCCCCCCCCCCCCCCCC(=O)O)C(=O)O)C(=O)O)C(=O)N[C@@H](CC(C)C)C(=O)N1CCC[C@H]1C(=O)N1CCC[C@H]1C(=O)N[C@H](C(=O)N[C@@H](CCC(=O)O)C(=O)N[C@H](C(=O)NCC(=O)N[C@@H](CO)C(=O)N[C@@H](CC(N)=O)C(=O)N[C@H](C(=O)N[C@@H](Cc1ccc(O)cc1)C(N)=O)[C@@H](C)O)C(C)C)[C@@H](C)O)C(C)C [Compound II] (γGlu-CNTATCATG[Orn]LAE[αMeF]LVRSSN[NMeN]FGPK([γGlu-γGlu-C20 diacid])LPPTEVGSNTY-NH2; linker 1-6 via CH2)	no peptides displayed on MHC-II complexes
20 ± 6.9 h	551 ± 27.1 hr * kg * nmol/L/nmol	5.5 ± 2.1 kg * nmol/L/nmol	33.2%	no peptides	Low Risk	0.107 ± 0.016 nM	1.8 mL/h/kg	66.9 ± 27.6 h	CC(C)C[C@H](NC(=O)[C@H](CCCN)NC(=O)CNC(=O)[C@@H](NC(=O)[C@H](C)NC(=O)[C@@H]1CSCSC[C@H](NC(=O)CC[C@H](N)C(=O)O)C(=O)N[C@@H](CC(N)=O)C(=O)N[C@@H]([C@@H](C)O)C(=O)N[C@@H](C)C(=O)N[C@@H]([C@@H](C)O)C(=O)N1)[C@@H](C)O)C(=O)N[C@@H](C)C(=O)N[C@@H](CCC(=O)O)C(=O)N[C@@](C)(Cc1ccccc1)C(=O)N[C@@H](CC(C)C)C(=O)N[C@H](C(=O)N[C@@H](CCCNC(=N)N)C(=O)N[C@@H](CO)C(=O)N[C@@H](CO)C(=O)N[C@@H](CC(N)=O)C(=O)N(C)[C@@H](CC(=O)O)C(=O)N[C@@H](Cc1ccccc1)C(=O)NCC(=O)N1CCC[C@H]1C(=O)N[C@@H](CCCCNC(=O)CC[C@H](NC(=O)CC[C@H](NC(=O)CCCCCCCCCCCCCCCCCCC(=O)O)C(=O)O)C(=O)O)C(=O)N[C@@H](CC(C)C)C(=O)N1CCC[C@H]1C(=O)N1CCC[C@H]1C(=O)N[C@H](C(=O)N[C@@H](CCC(=O)O)C(=O)N[C@H](C(=O)NCC(=O)N[C@@H](CO)C(=O)N[C@@H](CC(N)=O)C(=O)N[C@H](C(=O)N[C@@H](Cc1ccc(O)cc1)C(N)=O)[C@@H](C)O)C(C)C)[C@@H](C)O)C(C)C [Compound IV, γE-CNTATCATG-Orn-LAE-αMeF-LVRSSN-NMeD-FGPKLPPTEVGSNTY-NH2] (γGlu-CNTATCATG[Orn]LAE[αMeF]LVRSSN[NMeD]FGPK([γGlu-γGlu-C20 diacid])LPPTEVGSNTY-NH2; linker 1-6 via CH2)	no peptides displayed on MHC-II complexes
24 h	506 ± 26.6 hr * kg * nmol/L/nmol	5.4 ± 0.5 kg * nmol/L/nmol	43.9%	no peptides	Low Risk	0.107 ± 0.015 nM	2 mL/h/kg	54 ± 8.4 h	CC[C@H](C)[C@H](NC(=O)[C@@H]1CCCN1C(=O)CNC(=O)[C@H](Cc1ccccc1)NC(=O)[C@H](CC(=O)O)N(C)C(=O)[C@H](CC(N)=O)NC(=O)[C@H](CO)NC(=O)[C@H](CO)NC(=O)[C@H](CCCNC(=N)N)NC(=O)[C@@H](NC(=O)[C@H](CC(C)C)NC(=O)[C@](C)(Cc1ccccc1)NC(=O)[C@H](CCC(=O)O)NC(=O)[C@H](C)NC(=O)[C@H](CC(C)C)NC(=O)[C@H](CCCN)NC(=O)CNC(=O)[C@@H](NC(=O)[C@H](C)NC(=O)[C@@H]1CSCSC[C@H](NC(=O)[C@@H](N)CCCCNC(=O)CC[C@H](NC(=O)CC[C@H](NC(=O)CCCCCCCCCCCCCCCCCCC(=O)O)C(=O)O)C(=O)O)C(=O)N[C@@H](CCC(=O)O)C(=O)N[C@@H]([C@@H](C)O)C(=O)N[C@@H](C)C(=O)N[C@@H]([C@@H](C)O)C(=O)N1)[C@@H](C)O)C(C)C)C(=O)N[C@@H](CC(C)C)C(=O)N1CCC[C@H]1C(=O)N1CCC[C@H]1C(=O)N[C@H](C(=O)N[C@@H](CCC(=O)O)C(=O)N[C@H](C(=O)NCC(=O)N[C@@H](CO)C(=O)N[C@@H](CC(N)=O)C(=O)N[C@H](C(=O)N[C@@H](Cc1ccc(O)cc1)C(N)=O)[C@@H](C)O)C(C)C)[C@@H](C)O [Compound VI, KCETATCATG-Orn-LAE-αMeF-LVRSSN-NMeD-FGPILPPTEVGSNTY-NH2] (H-K([γGlu-γGlu-C20 diacid])CETATCATG[Orn]LAE[αMeF]LVRSSN[NMeD]FGPILPPTEVGSNTY-NH2; linker 2-7 via CH2)	no peptides displayed on MHC-II complexes
